Structures are written as SMILES. Entries after “also recorded” stand apart in the source; their conditions may differ.

Series [1] deals with breast tissue. The experiment in a line: Treatment with parenteral (intramuscular) androgen preparation, then mammography and manual breast examination. The series is classed as in vivo, human (pre and postmenopausal women). The protocol: Patients in need of breast cancer examinations were provided parenteral administration of androgen preparations in the clinical setting. Lakeview Pharmacy, Inc. prepared the compounded equivalent of Depo-Testosterone (Testosterone Cypionate 200 mg/ml dissolved in Cottonseed Oil and preserved with Benzyl Benzoate USP and Benzyl Alcohol NF.) in a multi-use vial. The androgen preparation was administered in a dose of about 150 mg to about 200 mg per month for the treatment of fibrocystic breast disorders. The treating physician delivered the preparation intramuscularly in a single dose. The preparation was given to approximately 40 pre and postmenopausal women ranging in age from 24 to 80 years of age. The patients were then scheduled for a mammogram at least one month but not more than three months after commencement of administration of the androgen preparation.
(§1) In advance of the mammographic procedure, patients were instructed to not wear deodorant (the crystals cause difficulty in reading the films). […] A Picker Digital Mammogram was used to take the frontal and side views of the breast tissue bilaterally. Minimums of two views were taken per breast. The films were then interpreted by a radiologist with experience in interpreting mammograms and graded with the BI-RADS system.

The subject of series [2] is breast tissue. Description: Treatment with topical androgen preparation (PCA cream), then mammography and manual breast examination. In kind it is in vivo, human (pre and postmenopausal women).
Description: as §1
Patients in need of breast cancer examinations were provided topical formulations for administration of androgen preparations in the outpatient setting. Lakeview Pharmacy, Inc made up the compounded equivalent of Depo-Testosterone (150 mg of testosterone cypionate mixed in PCA cream) with an application of 6 inches squeezed from a multi-use tube of the mixture and rubbed into the skin on a daily basis. The androgen preparation was administered as a total monthly dose from about 150 mg to about 200 mg. The formulation was given to approximately 15 pre and postmenopausal women ranging in age from 24 to 80 years of age. The patient was then scheduled for a mammogram at least one month but not more than two months after administration of the androgen preparation. Mammography was performed as described in Example 1.

Series [3] relates to breast tissue. Description: Administration of testosterone to female patients with dense or fibrous breasts (summary statements). The series is classed as in vivo, human (pre- and post-menopausal women).
[4] abbreviates: patients presenting with dense breast tissue and attendant mastalgia.
Where [5] appears, read: pre- and post-menopausal women with fibrous or dense breasts.

Turning to `C[C@]12CC[C@H]3[C@@H](CCC4=CC(=O)CC[C@@]43C)[C@@H]1CC[C@@H]2OC(=O)CCC1CCCC1` [Testosterone Cypionate], the “alteration of the menstrual cycle by the medication” value in series [1] and in series [2] (topical) was “nor did the medication alter the menstrual cycle” throughout. The “radiographic breast density on mammographic images” value in series [1] (about 150 mg to about 200 mg per month, approximately 40 women, seen after only one monthly treatment, films graded with BI-RADS) is given as “appreciable reduction”; in series [2] (topical PCA cream daily, total monthly dose about 150 mg to about 200 mg, approximately 15 women, seen after only one monthly treatment) it was “appreciable reduction”. Also, the “breast palpability by manual examination” value in series [1] (about 150 mg to about 200 mg per month, seen after only one monthly treatment) is given as “improved”; in series [2] (topical PCA cream daily, total monthly dose about 150 mg to about 200 mg, seen after only one monthly treatment) it was “improved”. Also, the “mammographic changes in density, patients affected” value in series [1] (most significant in those patients with dense breasts) was “noted in all patients”; in series [2] (topical, most significant in those patients with dense breasts) it was “noted in all patients”. In addition, the “lesions requiring 6-month follow up, at second mammogram” value is listed as “disappeared” in series [1] (sustained treatment for 6 or more months, some lesions) and “disappeared” in series [2] (topical, sustained treatment for 6 or more months, some lesions). Also, the “effects on radiographic and palpable density after two months of treatment (versus one month)” value in series [1] (two months of androgen treatment prior to examination) is “More significant effects”; in series [2] (topical, two months of androgen treatment prior to examination), “More significant effects”.

As for `C[C@]12CC[C@H]3[C@@H](CCC4=CC(=O)CC[C@@]43C)[C@@H]1CC[C@@H]2O` [testosterone], the “visualization of breast tissue in mammographic procedures” value in series [3] (female patients with dense breast tissue) is reported as “significantly improved”. Also, in series [3] (setting [4]), the “mammographic opacity and overall density” value was “marked reduction”; the “palpability of breast tissue during manual examination” value is “significantly improved”. Further, in series [3] (setting [5]), the “number or size of fibrous (fibrocystic) breast lesions” value is listed as “decrease; also recorded: reduced”, the palpable breast density result was “decrease”, the radiographic density result is recorded as “decrease” and the “symptoms secondary to cyclic causes (sense of breast fullness or heaviness)” value is “eliminated; also recorded: reduced”.

The record behind these values is US20040028610A1, “Method of increasing the sensitivity of mammography” (priority 2003, published 2004).
